Experimental findings from patent US8318504B2, “MRP2 efflux pathway prognostic method” (priority 2009, dated 2012) are described below.

One data set deals with T1, OATP1B1 (Homo sapiens, UniProt Q9Y6L6).
T1 construct: expressed in transfected cells; host or cells: CHO cells (stably transfected; Treiber et al. 2007)
T1 sequence (Q9Y6L6 1-691): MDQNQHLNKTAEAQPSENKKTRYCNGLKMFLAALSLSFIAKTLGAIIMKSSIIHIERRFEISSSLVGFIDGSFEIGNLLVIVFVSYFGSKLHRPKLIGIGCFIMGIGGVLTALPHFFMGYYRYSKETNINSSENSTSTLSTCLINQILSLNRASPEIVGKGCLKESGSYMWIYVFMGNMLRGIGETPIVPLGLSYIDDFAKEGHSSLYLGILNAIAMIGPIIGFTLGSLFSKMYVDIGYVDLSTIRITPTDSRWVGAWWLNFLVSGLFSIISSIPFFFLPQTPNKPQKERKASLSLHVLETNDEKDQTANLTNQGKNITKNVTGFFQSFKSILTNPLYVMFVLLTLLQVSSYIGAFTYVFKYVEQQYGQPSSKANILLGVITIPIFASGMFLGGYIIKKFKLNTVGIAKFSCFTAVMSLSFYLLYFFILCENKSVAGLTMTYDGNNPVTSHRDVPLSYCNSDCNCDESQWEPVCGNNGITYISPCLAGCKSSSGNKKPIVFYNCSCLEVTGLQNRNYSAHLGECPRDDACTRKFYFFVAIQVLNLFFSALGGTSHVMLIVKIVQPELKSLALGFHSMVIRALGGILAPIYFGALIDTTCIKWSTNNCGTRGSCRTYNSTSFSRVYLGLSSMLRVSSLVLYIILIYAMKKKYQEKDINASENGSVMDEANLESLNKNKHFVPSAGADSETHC
The data set is described as follows: Inhibition by CLF of estrone-3-sulfate transport in CHO cells expressing OATP1B1. The data set is classed as cell-based. The note with it: 0, 5 or 50 μmol/L CLF, 1 μmol/L estrone-3-sulfate. As to the method:
(§1) FIGS. 3A-3D relate to inhibition of transport activity of hepatocellular uptake transporters by CLF. CHO cells expressing NTCP, OATP1B1, OATP1B3 and OATP2B1 were incubated with 0, 5 or 50 μmol/L CLF and with the substrates, 2.5 μmol/L TC, 1 μmol/L estrone-3-sulfate, 10 μmol/L TC and 1 μmol/L estrone-3-sulfate, respectively. Data represent means±SD of triplicate determinations.
(§2) For all transport experiments, cells grown on 3 cm culture dishes were cultured for 24 hours in media supplemented with 5 mmol/L sodium-butyrate to increase expression levels of transfected transporters [Palermo D P et al., J Biotechnol 1991 June; 19(1):35-47]. • Transport experiments with uptake of radioactively labeled substrates: These experiments were performed as described by Huber R D et al. [Am J Physiol Cell Physiol 2007 February; 292(2):C795-C806]. • Transport experiments with uptake of CLF: Uptake was performed in the same buffers as for the radioactive substrates above. […] After complete solubilization, 1.5 ml was used to measure fluorescence in a Perkin-Elmer LS-5 luminescence-spectrometer set at λexe 486 nm (slit 10 nm) and λem 520 nm (slit 5 nm). Protein was determined with the bicinchoninic acid method using a kit from Interchim (Montfuçon, France). […]

The target in another data set is T2, NTCP (Homo sapiens, UniProt Q14973).
T2 construct: the coding region ligated into pcDNA5/FRT; expressed in transfected cells
T2 sequence (Q14973 1-349): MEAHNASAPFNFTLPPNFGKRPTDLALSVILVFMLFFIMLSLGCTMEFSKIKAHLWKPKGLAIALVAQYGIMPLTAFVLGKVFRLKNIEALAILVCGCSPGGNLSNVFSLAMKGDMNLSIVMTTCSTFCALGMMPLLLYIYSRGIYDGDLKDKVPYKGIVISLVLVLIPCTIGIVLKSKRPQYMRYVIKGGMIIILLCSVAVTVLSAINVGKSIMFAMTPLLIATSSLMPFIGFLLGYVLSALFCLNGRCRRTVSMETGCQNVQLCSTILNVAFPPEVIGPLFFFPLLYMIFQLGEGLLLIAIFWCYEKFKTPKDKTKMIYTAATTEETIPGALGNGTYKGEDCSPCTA
As to the kind of experiment: Inhibition by CLF of TC transport in CHO cells expressing NTCP. The data set is classed as cell-based. To be noted: 0, 5 or 50 μmol/L CLF, 2.5 μmol/L TC. On the procedure:
as §1, §2

Data set [1] is described as follows: Biliary secretion study of CLF in wild type, Abcc2-/- and Abcc3-/- mice. The data set is classed as in vivo. The note with it: FVB, mouse, blood, intravenous, 100 μL of 1 mmol/L CLF, 120 minutes after administration, read-out: blood levels of CLF. As to the method: Mice received 100 μL of 1 mmol/L CLF by injection in the tail vein. Data represent means±SD. Plasma levels are expressed in nmol/L and levels in urine, liver and bile as percentage of administered dose. Significance was tested using two-sided Student's t-test: *P<0.05 for Abcc2^-/- vs wild type mice. Data represent means±SD. Abcc2^-/- mice (against a Friend virus B-type (FVB) background) were bred at the National Cancer Institute (Amsterdam, The Netherlands). Production and characterization of the Abcc2^-/- mice was as described by […] et al. [J Pharmacol Exp Ther 2006 July; 318(1):319-327]. Wild type and Abcc3^-/- mice (against an FVB background) were bred at the animal institute of the Academic Medical Center. Production and characterization of the Abcc3^-/- mice was as described by Zelcer et al. [J Hepatol 2006 April; 44(4):768-775]. For biliary secretion studies, the gall bladder was cannulated with PE10 polyethylene tubing and 100 μL (1 mmol/L) CLF was injected in the tail vein. Bile was collected in 10 minutes fractions; liver and blood were harvested at the end of the experiment. Homogenised livers were deproteinised by adding 2 volumes of MeOH, and bile and blood samples were diluted with 0.1% Triton-X-100. The amount CLF was quantitated by measurement of fluorescence as described above.

Where two headings read alike, the source gives them in different places.

Consider `CC(CCC(=O)NC(CCCCNC(=S)Nc1ccc(-c2c3ccc(=O)cc-3oc3cc(O)ccc23)c(C(=O)O)c1)C(=O)O)C1CCC2C3C(O)CC4CC(O)CCC4(C)C3CC(O)C12C` (stereo not shown) [CLF, cholyl lysyl fluorescein], for which the “inhibition of transport of estrone-3-sulfate mediated by OATP1B1 by CLF” value against OATP1B1 is on record as “much less efficiently”. Further, the “inhibition of transport of TC via NTCP by CLF” value against NTCP is given as “very efficiently inhibited”. For the same molecule, the concentration at 120 min was 1310 ± 749 nM in data set [1] (Abcc2-/- mice) and 83 ± 21 nM in data set [1] (wt mice).
